Data reported in patent US9522920B2, “Bromodomain inhibitors and uses thereof” (Constellation Pharmaceuticals, Inc., priority 2010, dated 2016).
Like-named read-outs stand apart in the source and are kept apart here.

Assays:
IL-6 secretion = assay: Cell-based IL-6 quantification assay (ELISA, Mesoscale) in LPS-stimulated THP-1 cells; settings: Homo sapiens, THP-1, 16 h, read-out: IL6
Experimental: 100,000 THP-1 cells were seeded in RPMI1640-10% FBS in 96-well plates. LPS (E. Coli Invitrogen) in RPMI-10% FBS at a final concentration of 4 μg/mL was added to the wells and the cells are then incubated in the presence of various concentrations of compounds for 16 h. Plates are spun ([…], 5 min), an aliquot of 25 uL supernatant is transferred in to an ELISA plate (Mesoscale technology, MSD) and the detection of IL-6 is performed using manufacturer's instructions. The amount of cells in each well is assessed using CellTiter-Glo® (Promega). The ratio of ELISA value/CellTiter-Glo value is used to calculate the percent of inhibition of IL-6 secretion.

BRD4(BD1) = biological target: T1, BRD4(BD1) (Homo sapiens, UniProt O60885); assay: BRD4 AlphaLisa binding assay (Alphascreen)
T1 construct: His; made in house
Experimental: Specifically, in a 384 well ProxiPlate BRD4(BD1) (30 nM final) was combined with peptide (200 nM final) in 40 mM HEPES (pH 7.0), 40 mM NaCl, 1 mM DTT, 0.01% (w/v) BSA, and 0.008% (w/v) Brij-35 either in the presence of DMSO (final 1.2% DMSO) or compound dilution series in DMSO. After 20 minute incubation at room temperature Alpha streptavidin donor beads and AlphaLisa anti-Flag acceptor beads were added to a final concentration of 10 ug/mL each. After three hours equilibration plates were read on an Envision instrument and IC50s calculated using a four parameter non-linear curve fit.

[1] = Table 7, THP-1 cells, LPS 4 μg/mL, 16 h, normalised to CellTiter-Glo
[2] = Table 6, BRD4(BD1) 30 nM, H4-tetraacetyl peptide 200 nM, read-out: BRD4 Alphascreen IC50
[3] = Table 14, BRD4 AlphaLisa Binding Assay, read-out: Alpha screen

Compound | IC50 (BRD4(BD1); [2]) | IC50 (IL-6 secretion; [1]) | also measured
Cc1noc2c1-c1sc(C)c(C)c1C(c1ccn(C)n1)=NC2CC(N)=O (stereo not drawn) [Compound 101] | < 500 nM | 500 to 1000 nM | –
Cc1noc2c1-c1sc(C)c(C)c1C(c1ccnnc1)=NC2CC(N)=O (stereo not drawn) [Compound 104] | 500 to 1000 nM | 500 to 1000 nM | –
Cc1noc2c1-c1sc(C)c(C)c1C(c1cncnc1)=NC2CC(N)=O (stereo not drawn) [Compound 105] | > 1000 nM | > 1000 nM | –
Cc1noc2c1-c1sc(C)c(C)c1C(c1ccncc1)=NC2CC(N)=O (stereo not drawn) [Compound 107] | < 500 nM | < 500 nM | –
Cc1noc2c1-c1sc(C)c(C)c1C(c1ccn(C)c(=O)c1)=NC2CC(N)=O (stereo not drawn) [Compound 119] | < 500 nM | 500 to 1000 nM | –
Cc1noc2c1-c1sc(C)c(C)c1C(N1CCN(C)CC1)=NC2CC(N)=O (stereo not drawn) [Compound 121] | > 1000 nM | > 1000 nM | –
Cc1noc2c1-c1sc(C)c(C)c1C(N1CCOCC1)=NC2CC(N)=O (stereo not drawn) [Compound 122] | > 1000 nM | > 1000 nM | –
Cc1noc2c1-c1sc(C)c(C)c1C(N1CCCN(C)CC1)=NC2CC(N)=O (stereo not drawn) [Compound 123] | > 1000 nM | > 1000 nM | –
Cc1noc2c1-c1sc(C)c(C)c1C(C1CC1)=NC2CC(N)=O (stereo not drawn) [Compound 125] | > 1000 nM | > 1000 nM | –
Cc1cc(Cl)ccc1C1=NC(CC(N)=O)c2onc(C)c2-c2ccccc21 (stereo not drawn) [Compound 151] | < 500 nM | < 500 nM | –
Cc1onc2c1-c1ccccc1C(c1ccc(Cl)cc1)=NC2O (stereo not drawn) [Compound 153, 6-(4-chlorophenyl)-1-methyl-4H-benzo[c]isoxazolo[4,3-e]azepin-4-ol] | > 1000 nM | > 1000 nM | –
Cc1onc2c1-c1ccccc1C(c1ccc(Cl)cc1)=NC2N (stereo not drawn) [Compound 154, 6-(4-chlorophenyl)-1-methyl-4H-benzo[c]isoxazolo[4,3-e]azepin-4-amine] | > 1000 nM | > 1000 nM | –
Cc1onc2c1-c1ccccc1C(c1ccc(Cl)cc1)=NC2C (stereo not drawn) [Compound 156, 6-(4-chlorophenyl)-1,4-dimethyl-4H-benzo[c]isoxazolo[4,3-e]azepine] | < 500 nM | > 1000 nM | –
CCOC(=O)C[C@@H]1N=C(c2ccc(Cl)cc2)c2ccccc2-c2c1noc2C [Compound 162, Ethyl 2-((4S)-6-(4-chlorophenyl)-1-methyl-4H-benzo[c]isoxazolo[4,3-e]azepin-4-yl)acetate] | < 500 nM | > 1000 nM | –
CCNC(=O)C[C@H]1N=C(c2ccc(Cl)cc2)c2c(sc(C)c2C)-c2c(C)noc21 [Compound 167, 2-((6R)-4-(4-chlorophenyl)-2,3,9-trimethyl-6H-isoxazolo[4,5-e]thieno[3,2-c]azepin-6-yl)-N-ethylacetamide] | – | – | IC50 (BRD4(BD1); BRD4 Alphascreen IC50, Table 6, BRD4(BD1) 30 nM, H4-tetraacetyl peptide 200 nM): > 1000 nM
Cc1noc2c1-c1sc(C)c(C)c1C(C1CCOCC1)=N[C@H]2CC(N)=O [Compound 168, 2-((6S)-2,3,9-trimethyl-4-(tetrahydro-2H-pyran-4-yl)-6H-isoxazolo[5,4-c]thieno[2,3-e]azepin-6-yl)acetamide] | > 1000 nM | > 1000 nM | –
Cc1noc2c1-c1ccnc(F)c1C(c1ccc(Cl)cc1)=NC2 [Compound 169, 6-(4-Chlorophenyl)-7-fluoro-1-methyl-4H-isoxazolo[5,4-c]pyrido[4,3-e]azepine] | > 1000 nM | > 1000 nM | –
COc1nccc2c1C(c1ccc(Cl)cc1)=NCc1onc(C)c1-2 [Compound 170, 6-(4-Chlorophenyl)-7-methoxy-1-methyl-4H-isoxazolo[5,4-c]pyrido[4,3-e]azepine] | < 500 nM | > 1000 nM | –
Cc1noc2c1-c1ccnc(OC(C)C)c1C(c1ccc(Cl)cc1)=NC2 [Compound 171, 6-(4-Chlorophenyl)-7-isopropoxy-1-methyl-4H-isoxazolo[5,4-c]pyrido[4,3-e]azepine] | > 1000 nM | – | IC50 (IL-6 secretion): > 1000 nM
Cc1noc2c1-c1cc[nH]c(=O)c1C(c1ccc(Cl)cc1)=NC2 [Compound 176, 6-(4-Chlorophenyl)-1-methyl-4H-isoxazolo[5,4-c]pyrido[4,3-e]azepin-7(8H)-one] | > 1000 nM | > 1000 nM | –
Cc1noc2c1-c1ccn(C)c(=O)c1C(c1ccc(Cl)cc1)=NC2 [Compound 177, 6-(4-Chlorophenyl)-1,8-dimethyl-4H-isoxazolo[5,4-c]pyrido[4,3-e]azepin-7(8H)-one] | > 1000 nM | > 1000 nM | –
CC(=O)NC[C@@H]1N=C(c2ccc(Cl)cc2)c2c(sc(C)c2C)-c2c(C)noc21 [Compound 182, N-(((6S)-4-(4-Chlorophenyl)-2,3,9-trimethyl-6H-isoxazolo[5,4-c]thieno[2,3-e]azepin-6-yl)methyl)acetamide] | < 500 nM | 500 to 1000 nM | –
CCNC(=O)C[C@H]1N=C(c2ccc(Cl)cc2)c2ccccc2-c2c1noc2C [Compound 189, 2-((4R)-6-(4-chlorophenyl)-1-methyl-4H-benzo[c]isoxazolo[4,3-e]azepin-4-yl)-N-ethylacetamide] | > 1000 nM | – | –
CNc1cc2c(cn1)-c1c(C)noc1CN=C2c1ccc(Cl)cc1 [Compound 258, 6-(4-Chlorophenyl)-N,1-dimethyl-4H-isoxazolo[5,4-c]pyrido[3,4-e]azepin-8-amine] | – | – | IC50 (BRD4(BD1); [3]): < 500 nM
Cc1noc2c1-c1cn(C)nc1C(c1ccc(Cl)cc1)=NC2 [Compound 265, 6-(4-chlorophenyl)-1,8-dimethyl-4,8-dihydroisoxazolo[5,4-c]pyrazolo[4,3-e]azepine] | – | – | IC50 (IL-6 secretion; Table 14, THP-1 cells, LPS, 16 h): > 1000 nM
CCNC(=O)NC1N=C(c2ccc(OC(F)(F)F)cc2)c2ccccc2-c2c(C)noc21 (stereo not drawn) [compound 259] | – | – | IC50 (BRD4(BD1); [3]): < 500 nM
CCNC(=O)NC1N=C(c2ccc(F)cc2)c2ccccc2-c2c(C)noc21 (stereo not drawn) [compound 260] | – | – | IC50 (BRD4(BD1); [3]): < 500 nM

Continued, in another order:

IC50 (BRD4(BD1); [2]) | Compound | IC50 (IL-6 secretion; [1]) | also measured
< 500 nM | Cc1noc2c1-c1sc(C)c(C)c1C(c1cc[nH]n1)=NC2CC(N)=O (stereo not drawn) [Compound 100] | 500 to 1000 nM | –
< 500 nM | Cc1noc2c1-c1sc(C)c(C)c1C(c1cccnc1)=NC2CC(N)=O (stereo not drawn) [Compound 106] | < 500 nM | –
< 500 nM | Cc1noc2c1-c1sc(C)c(C)c1C(c1ccccc1Cl)=NC2CC(N)=O (stereo not drawn) [Compound 111] | < 500 nM | –
< 500 nM | Cc1noc2c1-c1sc(C)c(C)c1C(c1cccc(C(N)=O)c1)=NC2CC(N)=O (stereo not drawn) [Compound 117] | < 500 nM | –
> 1000 nM | Cc1noc2c1-c1sc(C)c(C)c1C(Cc1ccccc1)=N[C@H]2CC(N)=O [Compound 127, 2-((6S)-4-benzyl-2,3,9-trimethyl-6H-isoxazolo[5,4-c]thieno[2,3-e]azepin-6-yl)acetamide] | > 1000 nM | –
> 1000 nM | Cc1noc2c1-c1ccn(-c3ccc(C#N)cc3)c(=O)c1C(c1ccc(Cl)cc1)=NC2 [Compound 178, 4-(6-(4-Chlorophenyl)-1-methyl-7-oxo-4H-isoxazolo[5,4-c]pyrido[4,3-e]azepin-8(7H)-yl)benzonitrile] | > 1000 nM | –
> 1000 nM | Cc1noc2c1-c1ccn(-c3ccccc3)c(=O)c1C(c1ccc(Cl)cc1)=NC2 [Compound 179, 6-(4-Chlorophenyl)-1-methyl-8-phenyl-4H-isoxazolo[5,4-c]pyrido[4,3-e]azepin-7(8H)-one] | > 1000 nM | –
> 1000 nM | Cc1onc2c1-c1ccccc1C(c1ccc(Cl)cc1)=NC2 [Compound 191, 6-(4-chlorophenyl)-1-methyl-4H-benzo[c]isoxazolo[4,3-e]azepine] | – | –
